Laboratory results published in patent US8158792B2, “Spiropiperidines for use as tryptase inhibitors” (Janssen Pharmaceutica N.V., priority 2007, dated 2012).

Target: human lung tryptase
Experiment: β-Tryptase In-Vitro Enzyme Assay
Type: biochemical
Conditions: human lung tryptase 1 nM, substrate H-D-HHT-Ala-Arg-pNa 500 μM, pH 7.4, room temperature
Protocol: The β-tryptase assay was conducted with human lung tryptase (Cortex Biochem #CP3033) in an aqueous buffer (10 mM Tris, 10 mM Hepes, 150 mM NaCl, 0.1% PEG 8000, pH 7.4) using the chromogenic substrate H-D-HHT-Ala-Arg-pNa. […] Percent inhibition was calculated by comparing the initial reaction velocity of samples without inhibitor to those with inhibitor. The initial reaction velocities were analyzed using Microsoft Excel.

Row | Structure (SMILES) | IC50 [nM]
1 | CSc1cccc(CC(=O)N2CCC3(CC2)COc2ccc(CN)cc23)c1 [Cpd 103, 1-(3-methylthio-benzyl)carbonyl-5′-aminomethyl-spiro[piperidine-4,3′-(2H)-benzo[b]furan]] | 960
2 | Cn1nc(C(F)(F)F)cc1-c1ccc(C(=O)N2CCC3(CC2)COc2ccc(CN)cc23)s1 [Cpd 127, 1-[5-(1-methyl-3-trifluoromethyl-pyrazol-5-yl)-thien-2-yl]carbonyl-5′-aminomethyl-spiro[piperidine-4,3′-(2H)-benzo[b]furan]] | 3700
3 | NCc1ccc2c(c1)C1(CCN(C(=O)c3ccc(-c4ccc(Br)cc4)o3)CC1)CO2 [Cpd 140, 1-[5-(4-bromo-phenyl)-furan-2-yl]carbonyl-5′-aminomethyl-spiro[piperidine-4,3′-(2H)-benzo[b]furan]] | 40
4 | NCc1ccc2c(c1)C1(CCN(C(=O)c3ccc(C#Cc4ccccc4)o3)CC1)CN2S(=O)(=O)c1ccc(C(=O)O)o1 [Cpd 337, 1-(5-phenylethynyl-furan-2-yl)carbonyl-1′-(5-carboxy-furan-2-yl)sulfonyl-5′-aminomethyl-spiro[piperidine-4,3′-(2H)-indole]] | 36
5 | NCc1ccc2c(c1)C1(CCN(C(=O)c3cccc(NC(N)=S)c3)CC1)CO2 [Cpd 5, 1-(3-aminothiocarbonylamino-phenyl)carbonyl-5′-aminomethyl-spiro[piperidine-4,3′-(2H)-benzo[b]furan]] | 450
6 | NCc1ccc2c(c1)C1(CCN(C(=O)/C=C/c3cccc(O)c3)CC1)CO2 [Cpd 265, (E)-1-(3-hydroxy-phenylethenyl)carbonyl-5′-aminomethyl-spiro[piperidine-4,3′-(2H)-benzo[b]furan]] | 870
7 | NCc1ccc2c(c1)C1(CCN(C(=O)CCc3ccc4c(c3)OCO4)CC1)CO2 [Cpd 104, 1-(benzodioxol-5-ylethyl)carbonyl-5′-aminomethyl-spiro[piperidine-4,3′-(2H)-benzo[b]furan]] | 4500
8 | NCc1ccc2c(c1)C1(CCN(C(=O)c3cccc(OC(F)(F)F)c3)CC1)CO2 [Cpd 60, 1-(3-trifluoromethoxy-phenyl)carbonyl-5′-aminomethyl-spiro[piperidine-4,3′-(2H)-benzo[b]furan]] | 2100
9 | NCc1ccc2c(c1)C1(CCN(C(=O)c3c[nH]c4ccccc34)CC1)CO2 [Cpd 236, 1-indol-3-ylcarbonyl-5′-aminomethyl-spiro[piperidine-4,3′-(2H)-benzo[b]furan]] | 750
10 | NCc1ccc2c(c1)C1(CCN(C(=O)c3ccc(-c4ccc(Cl)cc4)o3)CC1)CO2 [Cpd 12, 1-[5-(4-chloro-phenyl)-furan-2-yl]carbonyl-5′-aminomethyl-spiro[piperidine-4,3′-(2H)-benzo[b]furan]] | 66
11 | CC(C)(C)c1ccc(C(=O)N2CCC3(CC2)COc2ccc(CN)cc23)s1 [Cpd 266, 1-(5-tert-butyl-thien-2-yl)carbonyl-5′-aminomethyl-spiro[piperidine-4,3′-(2H)-benzo[b]furan]] | 200
12 | NCc1ccc2c(c1)C1(CCN(C(=O)c3cc(Br)c(Br)s3)CC1)CN2S(=O)(=O)O [Cpd 351, 1-(4,5-dibromo-thien-2-yl)carbonyl-1′-hydroxysulfonyl-5′-aminomethyl-spiro[piperidine-4,3′-(2H)-indole]] | 68
13 | CC(C)(C)c1ccc(OCc2ccc(C(=O)N3CCC4(CC3)COc3ccc(CN)cc34)o2)cc1 [Cpd 178, 1-[5-(4-tert-butyl-phenoxymethyl)-furan-2-yl]carbonyl-5′-aminomethyl-spiro[piperidine-4,3′-(2H)-benzo[b]furan]] | 440
14 | NCc1ccc2c(c1)C1(CCN(C(=O)CC3c4ccccc4-c4ccccc43)CC1)CO2 [Cpd 355, 1-(9H-fluoren-9-ylmethyl)carbonyl-5′-aminomethyl-spiro[piperidine-4,3′-(2H)-benzo[b]furan]] | 290
15 | NCc1ccc2c(c1)C1(CCN(C(=O)/C=C/c3ccccc3)CC1)CO2 [Cpd 109, (E)-1-(phenylethenyl)carbonyl-5′-aminomethyl-spiro[piperidine-4,3′-(2H)-benzo[b]furan]] | 210
16 | COC(=O)CCN1CC2(CCN(C(=O)c3ccc(C#Cc4ccccc4)o3)CC2)c2cc(CN)ccc21 [Cpd 321, 1-(5-phenylethynyl-furan-2-yl)carbonyl-1′-(2-methoxycarbonyl-ethyl)-5′-aminomethyl-spiro[piperidine-4,3′-(2H)-indole]] | 160
17 | NCc1ccc2c(c1)C1(CCN(C(=O)c3ccc(Oc4cc(C(F)(F)F)cc(C(F)(F)F)c4)cc3)CC1)CO2 [Cpd 279, 1-[4-(3,5-bis-trifluoromethyl-phenoxy)-phenyl]carbonyl-5′-aminomethyl-spiro[piperidine-4,3′-(2H)-benzo[b]furan]] | 8000
18 | Cc1nc(C)c(C(=O)N2CCC3(CC2)COc2ccc(CN)cc23)s1 [Cpd 118, 1-(2,4-dimethyl-thiazol-5-yl)carbonyl-5′-aminomethyl-spiro[piperidine-4,3′-(2H)-benzo[b]furan]] | 110

Row | Structure (SMILES) | IC50 [nM]
19 | C/C(=C/c1ccccc1)C(=O)N1CCC2(CC1)COc1ccc(CN)cc12 [Cpd 181, (Z)-1-(1-methyl-2-phenylethenyl)carbonyl-5′-aminomethyl-spiro[piperidine-4,3′-(2H)-benzo[b]furan]] | 1700
20 | NCc1ccc2c(c1)C1(CCN(C(=O)c3cc4cc(Cl)ccc4o3)CC1)CO2 [Cpd 13, 1-(5-chloro-benzo[b]-furan-2-yl)carbonyl-5′-aminomethyl-spiro[piperidine-4,3′-(2H)-benzo[b]furan]] | 1100
21 | COc1ccc(CN2C(=O)c3ccc(CN)cc3C23CCN(C(=O)c2ccc(C#Cc4ccccc4)o2)CC3)c(OC)c1 [Cpd 316, 1-(5-phenylethynyl-furan-2-yl)carbonyl-1′-oxo-2′-(2,4-dimethoxy-benzyl)-5′-aminomethyl-spiro[piperidine-4,3′-1H-isoindole]] | 74
22 | NCc1ccc2c(c1)C1(CCN(C(=O)/C=C/c3ccc4c(c3)OCO4)CC1)CO2 [Cpd 187, (E)-1-(benzodioxol-5-ylethenyl)carbonyl-5′-aminomethyl-spiro[piperidine-4,3′-(2H)-benzo[b]furan]] | 790
23 | NCc1ccc2c(c1)C1(CCN(C(=O)c3cc(-c4ccccc4)cs3)CC1)CO2 [Cpd 288, 1-(4-phenyl-thien-2-yl)carbonyl-5′-aminomethyl-spiro[piperidine-4,3′-(2H)-benzo[b]furan]] | 280
24 | NCc1ccc2c(c1)C1(CCN(C(=O)c3sc(SCc4ccccc4)c4c3CCCC4=O)CC1)CO2 [Cpd 214, 1-(3-benzylthio-4-oxo-5,6,7-trihydro-4H-benzo[c]thien-1-yl)carbonyl-5′-aminomethyl-spiro[piperidine-4,3′-(2H)-benzo[b]furan]] | 6.5
25 | C=CCc1ccc(OCc2ccc(C(=O)N3CCC4(CC3)COc3ccc(CN)cc34)o2)c(OC)c1 [Cpd 224, 1-[5-(2-methoxy-4-allyl-phenoxymethyl)-furan-2-yl]carbonyl-5′-aminomethyl-spiro[piperidine-4,3′-(2H)-benzo[b]furan]] | 280
26 | COc1cccc(C(=O)N2CCC3(CC2)COc2ccc(CN)cc23)c1 [Cpd 53, 1-(3-methoxy-phenyl)carbonyl-5′-aminomethyl-spiro[piperidine-4,3′-(2H)-benzo[b]furan]] | 870
27 | NCc1ccc2c(c1)C1(CCN(C(=O)c3ccc(Cc4ccccc4)cc3)CC1)CO2 [Cpd 75, 1-(4-benzyl-phenyl)carbonyl-5′-aminomethyl-spiro[piperidine-4,3′-(2H)-benzo[b]furan]] | 470
28 | NCc1ccc2c(c1)C1(CCN(C(=O)c3ccc(COc4ccccc4Br)o3)CC1)CO2 [Cpd 213, 1-[5-(2-bromo-phenoxymethyl)-furan-2-yl]carbonyl-5′-aminomethyl-spiro[piperidine-4,3′-(2H)-benzo[b]furan]] | 240
29 | NCc1ccc2c(c1)C1(CCN(C(=O)c3ccc(-c4cc(Cl)ccc4Cl)o3)CC1)CO2 [Cpd 137, 1-[5-(2,5-dichloro-phenyl)-furan-2-yl]carbonyl-5′-aminomethyl-spiro[piperidine-4,3′-(2H)-benzo[b]furan]] | 53
30 | NCc1ccc2c(c1)C1(CCN(C(=O)Cc3ccc(Cl)cc3)CC1)CO2 [Cpd 91, 1-(4-chloro-benzyl)carbonyl-5′-aminomethyl-spiro[piperidine-4,3′-(2H)-benzo[b]furan]] | 480
31 | NCc1ccc2c(c1)C1(CCN(C(=O)Cc3cccc(Oc4ccccc4F)c3)CC1)CO2 [Cpd 210, 1-[3-(2-fluoro-phenoxy)-benzyl]carbonyl-5′-aminomethyl-spiro[piperidine-4,3′-(2H)-benzo[b]furan]] | 26
32 | Cc1ccccc1C#Cc1ccc(C(=O)N2CCC3(CC2)COc2ccc(CN)cc23)o1 [Cpd 153, 1-[5-(2-methyl-phenylethynyl)-furan-2-yl]carbonyl-5′-aminomethyl-spiro[piperidine-4,3′-(2H)-benzo[b]furan]] | 1.2
33 | CC(C)(C)c1ccc(/C=C/C(=O)N2CCC3(CC2)COc2ccc(CN)cc23)cc1 [Cpd 268, (E)-1-(4-tert-butyl-phenylethenyl)carbonyl-5′-aminomethyl-spiro[piperidine-4,3′-(2H)-benzo[b]furan]] | 2900
34 | CCOCCOc1cccc(/C=C/C(=O)N2CCC3(CC2)COc2ccc(CN)cc23)c1 [Cpd 302, (E)-1-[3-(2-ethoxy-ethoxy)-phenylethenyl]carbonyl-5′-aminomethyl-spiro[piperidine-4,3′-(2H)-benzo[b]furan]] | 750
35 | NCc1ccc2c(c1)C1(CCN(C(=O)c3ccc(COc4cccc(Cl)c4)o3)CC1)CO2 [Cpd 134, 1-[5-(3-chloro-phenoxymethyl)-furan-2-yl]carbonyl-5′-aminomethyl-spiro[piperidine-4,3′-(2H)-benzo[b]furan]] | 76
36 | NCc1ccc2c(c1)C1(CCN(C(=O)c3ccc(OCc4ccccc4)cc3)CC1)CO2 [Cpd 76, 1-(4-benzyloxy-phenyl)carbonyl-5′-aminomethyl-spiro[piperidine-4,3′-(2H)-benzo[b]furan]] | 420
